From ChEMBL document CHEMBL2417377, “Hit-to-lead optimization and kinase selectivity of imidazo[1,2-a]quinoxalin-4-amine derived JNK1 inhibitors” (Bioorg Med Chem Lett, 2013)

Key:
[1] = target: 3-phosphoinositide-dependent protein kinase 1 (Homo sapiens) (UniProt O15530); assay: Inhibition of PDK1 in human PC3 cell lysates at 10 uM using desthiobiotin-tagged ATP probe AX9989 followed by trypsinization by LC/MS analysis; details: PC-3
[2] = target: T1, Serine/threonine-protein kinase Nek8 (Homo sapiens) (UniProt Q86SG6); assay: Inhibition of NEK8 in human PC3 cell lysates at 10 uM using desthiobiotin-tagged ATP probe AX9989 followed by trypsinization by LC/MS analysis; details: PC-3
T1 sequence (whole entry): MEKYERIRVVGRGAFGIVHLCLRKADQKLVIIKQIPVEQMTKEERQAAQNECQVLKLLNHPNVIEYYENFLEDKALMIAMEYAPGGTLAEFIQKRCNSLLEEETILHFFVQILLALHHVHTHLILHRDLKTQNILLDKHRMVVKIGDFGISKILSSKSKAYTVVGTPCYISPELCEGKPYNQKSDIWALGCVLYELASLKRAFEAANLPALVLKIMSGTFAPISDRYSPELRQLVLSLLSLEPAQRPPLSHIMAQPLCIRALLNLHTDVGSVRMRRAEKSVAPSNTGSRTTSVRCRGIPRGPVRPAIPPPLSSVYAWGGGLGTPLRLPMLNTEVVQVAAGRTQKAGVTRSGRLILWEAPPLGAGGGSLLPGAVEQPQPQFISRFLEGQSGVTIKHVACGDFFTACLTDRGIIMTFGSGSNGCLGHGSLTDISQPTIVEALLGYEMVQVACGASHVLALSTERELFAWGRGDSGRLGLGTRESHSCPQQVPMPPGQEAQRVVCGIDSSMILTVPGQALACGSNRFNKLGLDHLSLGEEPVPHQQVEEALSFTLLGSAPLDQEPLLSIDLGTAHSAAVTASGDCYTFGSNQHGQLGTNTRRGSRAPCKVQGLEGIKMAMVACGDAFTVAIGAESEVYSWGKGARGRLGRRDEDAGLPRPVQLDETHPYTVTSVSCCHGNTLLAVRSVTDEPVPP

[3] = target: T2, Ephrin type-B receptor 2 (Homo sapiens) (UniProt P29323); assay: Inhibition of EphB2 in human PC3 cell lysates at 10 uM using desthiobiotin-tagged ATP probe AX9989 followed by trypsinization by LC/MS analysis; details: PC-3
T2 sequence (whole entry): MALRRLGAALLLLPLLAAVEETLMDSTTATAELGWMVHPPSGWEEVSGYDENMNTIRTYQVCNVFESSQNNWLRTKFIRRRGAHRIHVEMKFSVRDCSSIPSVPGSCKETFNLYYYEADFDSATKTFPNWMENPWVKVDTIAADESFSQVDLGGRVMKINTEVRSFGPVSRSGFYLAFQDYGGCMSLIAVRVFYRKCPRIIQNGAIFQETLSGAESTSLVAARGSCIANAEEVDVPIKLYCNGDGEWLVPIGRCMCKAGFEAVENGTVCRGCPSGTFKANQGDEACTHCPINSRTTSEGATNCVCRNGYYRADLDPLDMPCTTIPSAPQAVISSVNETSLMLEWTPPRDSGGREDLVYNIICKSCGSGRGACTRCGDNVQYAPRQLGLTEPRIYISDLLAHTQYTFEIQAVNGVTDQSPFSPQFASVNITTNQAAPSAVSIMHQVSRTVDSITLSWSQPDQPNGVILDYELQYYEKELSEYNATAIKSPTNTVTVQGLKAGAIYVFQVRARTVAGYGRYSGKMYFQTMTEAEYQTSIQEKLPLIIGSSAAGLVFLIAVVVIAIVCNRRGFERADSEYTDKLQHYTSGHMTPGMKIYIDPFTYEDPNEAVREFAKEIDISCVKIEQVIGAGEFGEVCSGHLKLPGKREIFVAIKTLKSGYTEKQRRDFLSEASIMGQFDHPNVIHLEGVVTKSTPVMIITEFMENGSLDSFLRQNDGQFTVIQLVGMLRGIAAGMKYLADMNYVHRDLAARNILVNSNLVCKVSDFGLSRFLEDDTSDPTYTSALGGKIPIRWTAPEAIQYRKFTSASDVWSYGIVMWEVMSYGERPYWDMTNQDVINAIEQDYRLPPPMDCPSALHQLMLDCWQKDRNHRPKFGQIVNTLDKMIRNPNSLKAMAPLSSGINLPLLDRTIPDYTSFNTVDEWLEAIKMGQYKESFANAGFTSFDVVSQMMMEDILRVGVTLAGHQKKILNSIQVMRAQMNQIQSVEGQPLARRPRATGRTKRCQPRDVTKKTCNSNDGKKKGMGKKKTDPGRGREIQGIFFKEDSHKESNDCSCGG

[4] = target: Casein kinase I delta/epsilon (Homo sapiens) (UniProt P48730+P49674); assay: Inhibition of CK1delta/CK1epsilon in human PC3 cell lysates at 10 uM using desthiobiotin-tagged ATP probe AX9989 followed by trypsinization by LC/MS analysis; assay type: protein-complex assay; details: PC-3
[5] = target: p38 delta/gamma (Homo sapiens) (UniProt O15264+P53778); assay: Inhibition of p38delta/gamma in human PC3 cell lysates at 10 uM using desthiobiotin-tagged ATP probe AX9989 followed by trypsinization by LC/MS analysis; assay type: protein assay; details: PC-3
[6] = target: T3, Dual specificity mitogen-activated protein kinase kinase 6 (Homo sapiens) (UniProt P52564); assay: Inhibition of MAP2K6 in human PC3 cell lysates at 10 uM using desthiobiotin-tagged ATP probe AX9989 followed by trypsinization by LC/MS analysis; details: PC-3
T3 sequence (whole entry): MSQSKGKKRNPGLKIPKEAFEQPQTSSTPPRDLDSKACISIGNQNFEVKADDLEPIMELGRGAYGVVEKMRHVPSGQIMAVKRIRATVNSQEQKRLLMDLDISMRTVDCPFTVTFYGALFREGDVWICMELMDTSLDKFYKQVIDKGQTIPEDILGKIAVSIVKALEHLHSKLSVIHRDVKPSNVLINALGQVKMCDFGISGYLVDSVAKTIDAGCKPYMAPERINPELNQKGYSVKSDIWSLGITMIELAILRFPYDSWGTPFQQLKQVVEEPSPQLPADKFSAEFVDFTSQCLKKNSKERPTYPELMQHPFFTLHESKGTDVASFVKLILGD

[7] = target: Serine/threonine-protein kinase PRP4 homolog (Homo sapiens) (UniProt Q13523); assay: Inhibition of PRP4 in human PC3 cell lysates at 10 uM using desthiobiotin-tagged ATP probe AX9989 followed by trypsinization by LC/MS analysis; details: PC-3
[8] = target: Serine/threonine-protein kinase 25 (Homo sapiens) (UniProt O00506); assay: Inhibition of YSK1 in human PC3 cell lysates at 10 uM using desthiobiotin-tagged ATP probe AX9989 followed by trypsinization by LC/MS analysis; details: PC-3
[9] = target: Mitogen-activated protein kinase kinase kinase 11 (Homo sapiens) (UniProt Q16584); assay: Inhibition of MLK3 in human PC3 cell lysates at 10 uM using desthiobiotin-tagged ATP probe AX9989 followed by trypsinization by LC/MS analysis; details: PC-3
PC-3 = assay: Inhibition of KHS1 in human PC3 cell lysates at 10 uM using desthiobiotin-tagged ATP probe AX9989 followed by trypsinization by LC/MS analysis; assay type: cell-free

Measured: inhibition

Sequence of Casein kinase I delta/epsilon (Homo sapiens) (P48730 whole entry, looked up): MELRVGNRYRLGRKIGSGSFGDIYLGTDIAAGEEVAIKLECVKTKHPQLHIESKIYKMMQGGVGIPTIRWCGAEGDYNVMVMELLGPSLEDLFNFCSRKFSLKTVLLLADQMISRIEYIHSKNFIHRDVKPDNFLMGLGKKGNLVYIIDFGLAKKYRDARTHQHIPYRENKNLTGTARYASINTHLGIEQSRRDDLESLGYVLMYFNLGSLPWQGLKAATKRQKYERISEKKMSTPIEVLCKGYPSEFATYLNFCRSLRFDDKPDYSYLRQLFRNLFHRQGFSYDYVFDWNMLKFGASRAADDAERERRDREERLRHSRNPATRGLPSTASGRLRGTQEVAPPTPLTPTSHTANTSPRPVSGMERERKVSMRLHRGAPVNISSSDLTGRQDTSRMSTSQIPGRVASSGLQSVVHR
Sequence of Casein kinase I delta/epsilon (Homo sapiens) (P49674 whole entry, looked up): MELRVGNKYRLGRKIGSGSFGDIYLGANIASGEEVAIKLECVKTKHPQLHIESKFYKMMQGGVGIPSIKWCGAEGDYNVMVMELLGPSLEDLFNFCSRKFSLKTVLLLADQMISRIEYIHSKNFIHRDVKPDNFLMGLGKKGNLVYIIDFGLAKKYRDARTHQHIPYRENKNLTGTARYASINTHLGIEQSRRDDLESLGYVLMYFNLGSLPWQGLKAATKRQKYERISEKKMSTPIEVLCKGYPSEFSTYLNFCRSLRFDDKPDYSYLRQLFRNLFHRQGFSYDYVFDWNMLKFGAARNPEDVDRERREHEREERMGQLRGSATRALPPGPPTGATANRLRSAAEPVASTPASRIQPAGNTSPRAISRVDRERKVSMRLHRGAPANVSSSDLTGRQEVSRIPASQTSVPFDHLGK
Sequence of Serine/threonine-protein kinase PRP4 homolog (Homo sapiens) (Q13523 whole entry): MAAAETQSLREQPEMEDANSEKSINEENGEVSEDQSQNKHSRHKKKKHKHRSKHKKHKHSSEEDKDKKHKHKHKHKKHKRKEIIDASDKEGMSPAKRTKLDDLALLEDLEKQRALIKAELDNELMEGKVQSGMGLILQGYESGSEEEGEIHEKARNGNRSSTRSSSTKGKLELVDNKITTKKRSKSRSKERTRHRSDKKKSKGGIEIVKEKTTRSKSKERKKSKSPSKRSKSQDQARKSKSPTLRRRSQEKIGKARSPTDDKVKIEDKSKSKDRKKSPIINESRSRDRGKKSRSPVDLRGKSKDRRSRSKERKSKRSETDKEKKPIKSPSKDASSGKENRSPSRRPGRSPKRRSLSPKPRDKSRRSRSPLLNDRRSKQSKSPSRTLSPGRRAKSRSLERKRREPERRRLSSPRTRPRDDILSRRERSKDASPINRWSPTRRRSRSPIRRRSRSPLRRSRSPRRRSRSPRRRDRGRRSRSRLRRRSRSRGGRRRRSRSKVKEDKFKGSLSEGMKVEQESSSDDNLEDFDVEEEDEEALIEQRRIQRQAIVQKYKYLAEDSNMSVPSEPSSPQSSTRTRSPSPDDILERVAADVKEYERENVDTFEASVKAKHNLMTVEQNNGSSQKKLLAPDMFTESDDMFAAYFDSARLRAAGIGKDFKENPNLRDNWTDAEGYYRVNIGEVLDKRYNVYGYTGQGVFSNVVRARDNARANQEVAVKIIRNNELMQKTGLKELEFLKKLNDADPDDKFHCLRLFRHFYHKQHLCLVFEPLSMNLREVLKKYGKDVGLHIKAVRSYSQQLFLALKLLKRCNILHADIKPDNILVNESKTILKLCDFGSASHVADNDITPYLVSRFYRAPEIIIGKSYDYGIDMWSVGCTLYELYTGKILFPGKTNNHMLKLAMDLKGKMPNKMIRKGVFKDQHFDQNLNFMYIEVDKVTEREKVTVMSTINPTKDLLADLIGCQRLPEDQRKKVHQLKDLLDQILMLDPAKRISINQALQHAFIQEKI
Sequence of 3-phosphoinositide-dependent protein kinase 1 (Homo sapiens) (O15530 whole entry, looked up): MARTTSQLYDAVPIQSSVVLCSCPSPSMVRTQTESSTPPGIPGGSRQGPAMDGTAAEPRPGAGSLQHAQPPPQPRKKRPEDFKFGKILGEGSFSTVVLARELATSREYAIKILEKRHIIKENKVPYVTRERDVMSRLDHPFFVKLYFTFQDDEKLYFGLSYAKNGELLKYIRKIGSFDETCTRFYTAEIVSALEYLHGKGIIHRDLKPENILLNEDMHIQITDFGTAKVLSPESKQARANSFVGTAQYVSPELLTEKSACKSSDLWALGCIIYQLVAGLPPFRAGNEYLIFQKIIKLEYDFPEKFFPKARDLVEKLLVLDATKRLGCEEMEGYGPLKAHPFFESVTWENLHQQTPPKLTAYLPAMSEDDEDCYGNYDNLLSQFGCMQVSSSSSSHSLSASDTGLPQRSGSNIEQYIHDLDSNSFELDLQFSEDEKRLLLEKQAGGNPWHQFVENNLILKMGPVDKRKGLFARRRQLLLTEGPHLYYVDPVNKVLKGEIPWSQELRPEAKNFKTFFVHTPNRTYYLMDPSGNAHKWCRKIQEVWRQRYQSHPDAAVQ
Sequence of Serine/threonine-protein kinase 25 (Homo sapiens) (O00506 whole entry, looked up): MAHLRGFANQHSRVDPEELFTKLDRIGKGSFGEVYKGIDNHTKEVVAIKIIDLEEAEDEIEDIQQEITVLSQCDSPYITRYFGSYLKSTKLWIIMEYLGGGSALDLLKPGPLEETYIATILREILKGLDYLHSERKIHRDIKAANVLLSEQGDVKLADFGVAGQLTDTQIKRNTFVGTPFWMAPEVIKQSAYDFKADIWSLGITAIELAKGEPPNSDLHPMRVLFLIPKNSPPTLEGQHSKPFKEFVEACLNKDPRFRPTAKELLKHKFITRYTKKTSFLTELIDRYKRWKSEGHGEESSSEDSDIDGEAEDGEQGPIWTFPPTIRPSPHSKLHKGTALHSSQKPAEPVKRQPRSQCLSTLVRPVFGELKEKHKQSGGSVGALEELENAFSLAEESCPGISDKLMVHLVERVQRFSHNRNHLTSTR
Sequence of Mitogen-activated protein kinase kinase kinase 11 (Homo sapiens) (Q16584 whole entry, looked up): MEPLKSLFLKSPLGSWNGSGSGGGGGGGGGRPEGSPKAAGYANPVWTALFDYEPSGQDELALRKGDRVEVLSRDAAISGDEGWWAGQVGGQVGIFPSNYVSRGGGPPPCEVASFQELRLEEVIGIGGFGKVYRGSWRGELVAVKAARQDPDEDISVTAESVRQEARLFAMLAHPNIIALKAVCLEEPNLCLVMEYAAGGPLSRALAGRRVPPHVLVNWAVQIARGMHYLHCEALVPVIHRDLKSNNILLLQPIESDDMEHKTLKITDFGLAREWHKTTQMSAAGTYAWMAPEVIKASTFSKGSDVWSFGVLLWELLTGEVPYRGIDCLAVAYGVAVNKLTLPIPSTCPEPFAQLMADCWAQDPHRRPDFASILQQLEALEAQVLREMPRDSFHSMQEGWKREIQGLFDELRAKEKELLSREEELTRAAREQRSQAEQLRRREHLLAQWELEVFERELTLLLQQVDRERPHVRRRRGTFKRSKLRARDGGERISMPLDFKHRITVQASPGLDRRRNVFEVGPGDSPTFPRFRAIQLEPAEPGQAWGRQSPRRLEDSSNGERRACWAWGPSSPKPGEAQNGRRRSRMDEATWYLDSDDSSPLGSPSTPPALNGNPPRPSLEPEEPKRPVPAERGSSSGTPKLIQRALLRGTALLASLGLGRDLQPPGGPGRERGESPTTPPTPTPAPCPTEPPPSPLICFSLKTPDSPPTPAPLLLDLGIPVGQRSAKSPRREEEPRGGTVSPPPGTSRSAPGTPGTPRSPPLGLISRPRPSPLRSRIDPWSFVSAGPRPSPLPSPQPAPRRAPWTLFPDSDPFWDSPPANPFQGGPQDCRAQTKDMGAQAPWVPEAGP

O=C(NC1(Cc2ccc(F)cc2)CC1)c1ccc2nc(N[C@H]3CC[C@H](O)CC3)c3nccn3c2c1
< 35%: all assays above
